Measured values: paper PMC4551668 (Microbial Cell Factories, 2015)

Key:
[1] = molecular target: MPH (Ochr-MPH) (Ochrobactrum sp. M231, UniProt B2Z3X1); settings: CHBD-MPH, tag excised by Kex2; substrate not named, taken from enzyme name and text; assay conditions only by reference
Source text: (§1) steady-state kinetics, purified enzyme, standard MPH assay on MPH (Ochr-MPH)

[2] = molecular target: MPH (Ochr-MPH) (Ochrobactrum sp. M231, UniProt B2Z3X1, K284Q/K285R); settings: CHBD-QR; same
Source text: as §1

[3] = molecular target: MPH (Ochr-MPH) (Ochrobactrum sp. M231, UniProt B2Z3X1, K277D/K284Q/K285R); settings: CHBD-DQR; same
Source text: as §1

Sequence of MPH (Ochr-MPH) (Ochrobactrum sp. M231, UniProt B2Z3X1) (B2Z3X1 entry or part of it): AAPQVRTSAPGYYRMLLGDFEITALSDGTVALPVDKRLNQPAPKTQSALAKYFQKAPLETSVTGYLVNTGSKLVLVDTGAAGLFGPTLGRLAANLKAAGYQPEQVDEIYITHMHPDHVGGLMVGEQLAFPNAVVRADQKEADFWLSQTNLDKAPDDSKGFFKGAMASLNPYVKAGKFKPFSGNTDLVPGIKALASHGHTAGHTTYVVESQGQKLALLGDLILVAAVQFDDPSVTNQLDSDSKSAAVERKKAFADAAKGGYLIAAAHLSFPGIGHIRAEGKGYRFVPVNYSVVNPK
Sequence of MPH (Ochr-MPH) (Ochrobactrum sp. M231, UniProt B2Z3X1, K284Q/K285R) (B2Z3X1 entry or part of it K284Q/K285R): as the sequence (B2Z3X1 entry or part of it) above, with K249Q, K250R counted along it
Sequence of MPH (Ochr-MPH) (Ochrobactrum sp. M231, UniProt B2Z3X1, K277D/K284Q/K285R) (B2Z3X1 entry or part of it K277D/K284Q/K285R): as the sequence (B2Z3X1 entry or part of it) above, with K242D, K249Q, K250R counted along it

Compound COP(=S)(OC)Oc1ccc([N+](=O)[O-])cc1 [methyl parathion] has a Km [1] of 86.9 ± 5.85 µM, a Km [2] of 119 ± 8.26 µM and a Km [3] of 168 ± 7.57 µM.
